# Assay results taken from publication PMC3792051, “Polyenylpyrrole Derivatives Inhibit NLRP3 Inflammasome Activation and Inflammatory Mediator Expression by Reducing Reactive Oxygen Species Production and Mitogen-Activated Protein Kinase Activation” (PLoS ONE, 2013).
# Legend:
# [1] = tested on: LPS-activated RAW 264.7 macrophages; assay: MAPK (ERK1/2, JNK1/2, p38) phosphorylation by Western blot; assay type: cell-based, murine; conditions: RAW 264.7, 20 µM 30 min, LPS 1 µg/ml 0-60 min
# Description: (§1) Cells were washed twice with ice-cold phosphate-buffered saline (PBS) and lysed on ice for 5 min with lysis buffer (20 mM Tris-HCl, pH 7.5, 150 mM NaCl, 1 mM Na 2EDTA, 1 mM EGTA, 1% Triton X-100, 2.5 mM sodium pyrophosphate, 1 mM beta-glycerophosphate, 1 mM Na 3VO4, 1 µg/ml of leupeptin, 1 mM PMSF, protease inhibitor cocktail). The lysate was then centrifuged at 12,000 x g at 4 °C for 10 min and the pellet discarded. […]
# Figure 5 Effect of compound 1h on ROS production and MAPK phosphorylation in LPS-activated macrophages. In (A), RAW 264.7 macrophages (5 × 10^5/ml; 1 ml) were incubated for 30 min with compound 1h (20 µM), N-acetyl cysteine (NAC; 10 mM), or DMSO (vehicle), then 2’, 7’-dichlorofluorescein diacetate (2 µM) was added for 30 min, followed by LPS (1 µg/ml) stimulation for the indicated time, then ROS levels were measured by detection of the mean fluorescence intensity (MFI) of the fluorophore carboxyl-DCF and expressing this value relative to that at time zero. In (B), RAW 264.7 macrophages (5 × 10^5/ml; 1 ml) were incubated for 30 min with compound 1h (20 µM) or DMSO, then LPS (1 µg/ml) was added and incubation continued for 0-60 min, then phosphorylation of ERK1/2, JNK1/2, and p38 was analyzed by Western blotting and expressed relative to actin expression and as a fold increase compared to the control group at 0 time. […]
# [2] = tested on: LPS-activated J774A.1 cells; assay: NLRP3 and proIL-1β expression by Western blot; assay type: cell-based, mouse; conditions: J774A.1, 1-40 µM 30 min before LPS 6 h
# Description: as §1
# Figure 4 Effect of compound 1h on NLRP3 inflammasome activation in LPS+ATP-activated J774A.1 macrophages. (A) J774A.1 macrophages (1 × 10^6/ml; 1 ml) or (B) peritoneal macrophages (1 × 10^5/ml; 1 ml) were incubated with 10-40 µM compound 1h or DMSO for 30 min, then LPS (1 µg/ml) was added and incubation continued for 5.5 h, then the cells were stimulated with ATP (5 mM) for an additional 30 min, then IL-1β in the culture medium was measured by ELISA (A, upper panel; B) and levels of active caspase-1 (p10) (A, lower panel) measured by Western blotting. […] In (E), J774A.1 macrophages (1 × 10^6/ml; 1 ml) were incubated for 30 min with DMSO or 1-40 µM compound 1h, then LPS (1 µg/ml) was added and incubation continued for 6 h, then expression of NLRP3 and proIL-1β was measured by Western blotting. […]
compound,measurement,setting,value
O=c1cc(O)cc(/C=C/C=C/C=C/C=C/c2[nH]ccc2Cl)o1 [compound 1h],"Phosphorylation of ERK1/2, JNK1/2 and p38",[1],inhibited phosphorylation of all 3 MAPKs
same,LPS-induced proIL-1β expression,[2],inhibited LPS-induced proIL-1β expression in a dose-dependent fashion
same,NLRP3 protein expression,[2],increased NLRP3 expression
